Test results from article PMC5823406, “Vehicle development, pharmacokinetics and toxicity of the anti-invasive agent 4-fluoro-3’,4’,5’-trimethoxychalcone in rodents” (PLoS ONE, 2018).

How the values were obtained:
Whole blood stability = assay type: in vitro ADME, rat; conditions: fresh whole blood, male Sprague-Dawley rat blood, read-out: Compound remaining (% of 0 min)
Procedure: C16 (1 μM) or vehicle (DMSO) were incubated with fresh rat blood (Sprague Dawley, male) at 37°C at 5 time points in duplicate over a 120-min period. The final DMSO concentration in the incubation was 0.25%. Reactions were terminated following 0, 15, 30, 60 and 120 min by acetonitrile containing internal standard. The sampling plate was centrifuged (3000 rpm, 45 min, 4 °C) and the supernatants from each time point analyzed for parent compound by HPLC-MS/MS. The percentage of parent compound remaining at each time point relative to the 0-min sample was then calculated from HPLC-MS/MS peak area ratios (compound peak area/internal standard peak area).
C. Stability and metabolism
For details on ADME experiments not included underneath , please consult ref. [1].
C.A. Whole blood stability
Column: Kinetex XB-C18 column, 2.6 µm (150 x2.1 mm)
Mobile phase A: H2O + 0.1% v/v Formic Acid
Mobile phase B: MeCN + 0.1% v/v Formic Acid
Autosampler syringe volume: 100 µL
Weak wash: MeOH:H2O 1:9 v/v
Strong wash: MeOH:H2O 95:5 v/v
Table K. Gradient program.
Mass spectrometric conditions
Model: AB Sciex API5500 QTrap
Mode: Multiple ion monitoring (MIM)
Table L. MIM (parent to parent transitions).
The areas and percentages for the parent and metabolites have been calculated using MIM data where parent to parent transitions have been used, and assume that each metabolite has the same point of ionisation and the sensitivity of the metabolite has not been affected by the biotransformation.

mouse = system: mouse; set-up: method as in PMID 4962802, PMID 6379027; conditions: PO; cited from earlier work

remaining at 15 min, 1 µM (Whole blood stability; 15 min)	remaining at 30 min, 1 µM (Whole blood stability; 30 min)	remaining at 60 min, 1 µM (Whole blood stability; 60 min)	remaining at 120 min, 1 µM (Whole blood stability; 120 min)	SMILES	LD50 (mouse)
99.9%	91.1%	74.3%	45.5%	COc1ccc([C@@H]2Sc3ccccc3N(CCN(C)C)C(=O)[C@@H]2OC(C)=O)cc1 [diltiazem, reference compound]	
				C[S+](C)[O-] [DMSO, dimethyl sulfoxide]	21000 to 28000 mg/kg
